# Measurements as given in patent publication US20220390471A1, “INTEGRATED DRUG DISCOVERY PLATFORM FOR PROTEIN MISFOLDING DISORDERS ASSOCIATED WITH METABOLITE ACCUMULATION” (Ramot at Tel-Aviv University Ltd., priority 2021, published 2022).
# Like-named read-outs stand apart in the source and are kept apart here.
# Tests used:
# Hcy fibrils [1] = test: ThT binding assay, inhibition of Hcy self-assembly by polyphenols; assay type: biochemical; settings: 1 mM EGCG or 0.1 mM TA added at timepoint zero; Hcy in PBS; emission 480 nm, excitation 440 nm
# Procedure: Hcy was dissolved at 90° C. in PBS to a final concentration of 10, 5 and 2 mg/mL and maintained at 90° C. until the beginning of the measurement. Samples containing polyphenols were immediately mixed with the inhibitors. EGCG or TA (final concentration of 1 mM and 0.1 mM, respectively). As a control, Hcy was diluted with PBS alone to the same final concentrations. ThT in PBS was added to a final concentration of 20 μM for 5 and 10 mg/ml Hcy or 40 μM for 2 mg/ml Hcy. Next, the solutions were plated in a black 96-well, clear, and flat bottom microplate (Greiner) and self-assembly kinetics were recorded over time at room temperature (uncontrolled gradual cooling of the solutions) with short shaking before each read. ThT emission data at 480 nm (excitation at 440 nm), were measured using a Tecan™ SPARK 10 M plate reader, gain of 100 for 2 mg/ml, and using a Tecan™ Infinite 200 PRO plate reader, gain of 90 for 5 and 10 mg/ml.
# Hcy fibrils [2] = test: TEM of pre-formed solutions of Hcy with polyphenols; settings: Hcy 2 mg/mL + 1 mM EGCG or 0.1 mM TA
# Procedure: Hcy was dissolved at 90° C. in PBS at various concentrations followed by gradual cooling of the solution. Where indicated, EGCG or TA (final concentration of 1 mM and 0.1 mM, respectively) were added before gradual cooling. Subsequently, 10 μL samples were placed on 400-mesh copper grids. After 2 min, excess fluids were removed. Samples were viewed using a JEOL 1200EX electron microscope operating at 80 kV.
# SH-SY5Y cells [3] = test: MTT cell viability assay, SH-SY5Y cells; assay type: cell-based, human; settings: for Cell viability with inhibitor-containing Hcy solution compared to Hcy alone (MTT): Hcy 2 mg/mL with EGCG 0.1 mM or TA 0.01 mM
# Procedure: SH-SY5Y cells (ATCC CRL-2266) or HEK293 cells (ATCC® CRL-1573) were cultured (2×10^5 cells/mL) in DMEM/Nutrient Mixture F12 (Ham's; 1:1) supplemented with 10% fetal bovine serum (FBS) in 96-well tissue microplates (100 μL per well) and allowed to adhere overnight at 37° C. Half of each plate was plated with cells, with the other half later serving as a control containing solutions alone. The treatment solutions were prepared as follows: Hcy or methionine were dissolved at 90° C. and at various concentrations in cell media without FBS, followed by gradual cooling of the solutions. For solutions containing polyphenols, Hcy (final concentration of 2 mg/mL) was similarly dissolved in cell media and mixed with EGCG or TA (final concentration of 0.1 mM and 0.01 mM, respectively, stock solution dissolved in cell medium) before gradual cooling. The medium was replaced and cells were treated with the solutions (100 μL per well), followed by overnight incubation at 37° C. Control cells were incubated with medium that was treated in the same manner (without Hcy). Controls of media supplemented with the inhibitors, without Hcy, were examined as well. Cell viability was evaluated using the 3-(4,5-dimethylthiazolyl-2)-2,5-diphenyltetrazolium bromide (MTT) assay. Briefly, 10 μL of 5 mg/mL MTT dissolved in PBS was added to each well. After a 4 hours incubation at 37° C. 100 μL of extraction buffer […] dissolved in a mixture of 50% DMF and 50% DDW (pH 4.7)] was added to each well, and the plates were further incubated at 37° C. for 30 min. Finally, color intensity was measured using an ELISA reader at 570 nm. Blank measurements of the solutions without cells were respectively subtracted. The data points are presented as mean±SD. For inhibitors and methionine controls, two-tailed Student's t test was performed when two groups were compared.
# HEK293 cells = test: MTT cell viability assay, HEK293 cells; assay type: cell-based; settings: HEK293 non-neuronal cell line, 24 hours
# Procedure: SH-SY5Y cells (ATCC CRL-2266) or HEK293 cells (ATCC® CRL-1573) were cultured (2×10^5 cells/mL) in DMEM/Nutrient Mixture F12 (Ham's; 1:1) supplemented with 10% fetal bovine serum (FBS) in 96-well tissue microplates (100 μL per well) and allowed to adhere overnight at 37° C. Half of each plate was plated with cells, with the other half later serving as a control containing solutions alone. […] For solutions containing polyphenols, Hcy (final concentration of 2 mg/mL) was similarly dissolved in cell media and mixed with EGCG or TA (final concentration of 0.1 mM and 0.01 mM, respectively, stock solution dissolved in cell medium) before gradual cooling. The medium was replaced and cells were treated with the solutions (100 μL per well), followed by overnight incubation at 37° C. Control cells were incubated with medium that was treated in the same manner (without Hcy). Controls of media supplemented with the inhibitors, without Hcy, were examined as well. Cell viability was evaluated using the 3-(4,5-dimethylthiazolyl-2)-2,5-diphenyltetrazolium bromide (MTT) assay. Briefly, 10 μL of 5 mg/mL MTT dissolved in PBS was added to each well. After a 4 hours incubation at 37° C. […] Finally, color intensity was measured using an ELISA reader at 570 nm. […]
# SH-SY5Y cells [4] = test: Annexin V and propidium iodide apoptosis assay (flow cytometry); assay type: cell-based, human
# Procedure: SH-SY5Y cells were cultured at 2×10^5 cells/mL in 24-well plates in DMEM/Nutrient Mixture F12 (Ham's; 1:1) supplemented with 10% FBS and were allowed to adhere overnight at 37° C. The treatment solutions containing Hcy and methionine were prepared as described above for the MTT assay. Cells were treated with the solutions followed by overnight incubation at 37° C. Control cells were incubated with medium that was treated in the same manner without Hcy. The apoptotic effect was evaluated using the MEBCYTO Apoptosis kit (MBL International), according to the manufacturer's instructions. Briefly, the adherent cells were trypsinized, detached and combined with floating cells from the incubated growth medium. Cells were then centrifuged and washed once with PBS and once with binding buffer. Cells were subsequently incubated with annexin V-FITC and PI for 15 min in the dark, resuspended in 200 μL binding buffer and analyzed by flow cytometry using a single laser-emitting excitation light at 488 nm. Data from at least 10^4 cells were acquired using the BD FACSort and the CellQuest software (BD Biosciences). Analysis was performed using the FlowJo software (TreeStar, version 14).
# SH-SY5Y cells [5] = test: ProteoStat staining, confocal microscopy of treated SH-SY5Y cells; assay type: cell-based, human; settings: Hcy assemblies 2 mg/mL, 4 hours
# Procedure: SH-SY5Y cells: 2×10^5 cells/mL were cultured in DMEM/Nutrient Mixture F12 (Ham's; 1:1) supplemented with 10% FBS in 24-well plate on glass slides coated with 0.01% Poly-L-Lysine. When reaching ˜70-80% confluency, cells were treated with Hcy (2 mg/mL dissolved at 90° C. in cell media without FBS, followed by gradual cooling of the solution). After 4 hours of incubation, the cells were immediately supplemented with ProtesoStat dye diluted 1:250 in ProteoStat assay buffer followed by incubation for 15 min at room temperature protected from light. Cells were imaged using Leica TCS SP8 laser confocal microscope with ×63 1.4 NA or ×100 1.4 NA oil objectives. An argon laser with 488 excitation line was used for ProteoStat (emission wavelength, 500-600 nm).
# cys4Δ yeast strain [6] = assay type: cell-based, Saccharomyces cerevisiae
# Procedure: The cys4 gene was disrupted in wild-type (WT) yeast strain (BY4741) via homologous recombination using PCR fragments amplified from the plasmid pFA6a-KanMX6 as a template with primer DL154:
# (§1) WT and cys4Δ strains were grown overnight at 30° C. Unless otherwise specified, the strains were grown on synthetic defined medium (SD) containing 20 mg/L L-methionine, 20 mg/L L-histidine monohydrochloride monohydrate, 20 mg/L uracil and 30 mg/L L-leucine. Cysteine was added to a final concentration of 13 mg/L. Hcy was added at the indicated concentrations.
# For spotting assays, strains were diluted to 6.25*10^7 cells/mL and then 5-fold serially diluted and spotted on the indicated plates. Plates were incubated at 30° C. for 2-3 days.
# (§2) For OD600 measurements, strains were diluted to OD600 0.01. 200 μL of cells were platted on 96 wells plates and incubated at 30° C. for 30 hours with continuous shaking. OD600 was measured using Tecan™ SPARK 10M plate reader.
# (§3) The percentage of growth analysis (FIG. 10F) represents the OD600 levels following 27 hours of growth in the plate reader. The percentage of growth represents the growth under the indicated conditions, with or without 0.3 mM TA, compared to the growth of WT without TA.
# cys4Δ yeast strain [7] = test: Aggregation level assay in yeast (ProteoStat, flow cytometry); assay type: cell-based, Saccharomyces cerevisiae; settings: cys4Δ with 100 mg/L Hcy compared to WT and to mutant without Hcy
# Procedure: For each sample, 2×10^6 cells/mL of logarithmic cells were resuspended with ProteoStat dye (Enzo Life Sciences). Cells were incubated for 15 min at room temperature protected from light. Flow cytometry was preformed using Stratedigm S1000EXi and the CellCapTure software (Stratedigm, San Jose, Calif.). Live cells were gated (P1) by forward scatter and side scatter. Fluorescence channels for FITC (530/30) and PE-Cy5 (676/29) were used utilizing a 488 nm laser source. A total of 50,000 events were acquired for each sample. Analyses were performed using the FlowJo software (TreeStar, version 14).
# β-amyloid1-42 = molecular target: T1, β-amyloid1-42 (Homo sapiens, UniProt P05067); test: In-vitro seeding of β-amyloid1-42 by Hcy assemblies (ThT binding assay); assay type: biochemical; settings: 20% v/v pre-formed Hcy assemblies (2, 5, 10 mg/mL stocks), 3 μM β-amyloid1-42 monomers, 37° C.
# T1 construct: purchased rPeptide
# Procedure: Hcy was dissolved at 90° C. in PBS followed by gradual cooling of the solution. […] (rPeptide) was dissolved in DMSO to a concentration of 120 μM. The monomeric protein was mixed with pre-formed 20% v/v Hcy assemblies (taken from 10, 5 or 2 mg/mL stock solutions), or with an equivalent volume of PBS as a control, to a final concentration of 3 μM β-amyloid1-42 ThT was added to a final concentration of 20 μM. Aggregation was monitored using Tecan™ Infinite 200 PRO fluorescence plate reader over time at 37° C. Blank measurements of Hcy only (without β-amyloid) were respectively subtracted.
# [8] = TEM of metabolite self-assembly; assay type: physicochemical; settings: dissolved at 90° C., gradual cooling
# Procedure: Hcy was dissolved at 90° C. in PBS at various concentrations followed by gradual cooling of the solution. […] Subsequently, 10 μL samples were placed on 400-mesh copper grids. After 2 min, excess fluids were removed. Samples were viewed using a JEOL 1200EX electron microscope operating at 80 kV.
# [9] = ThT binding assay of metabolite self-assembly; assay type: physicochemical; settings: emission 480 nm
# Procedure: Hcy was dissolved at 90° C. in PBS to a final concentration of 10, 5 and 2 mg/mL and maintained at 90° C. until the beginning of the measurement. Samples containing polyphenols were immediately mixed with the inhibitors. […] As a control, Hcy was diluted with PBS alone to the same final concentrations. […] Next, the solutions were plated in a black 96-well, clear, and flat bottom microplate (Greiner) and self-assembly kinetics were recorded over time at room temperature (uncontrolled gradual cooling of the solutions) with short shaking before each read. […] Following an overnight incubation at room temperature with gentle rotation (uncontrolled gradual cooling of solutions), ThT emission signal at 480 nm (excitation at 450 nm) was measured at room temperature with short shaking before each read and using a Tecan™ Infinite 200 PRO plate reader, gain 90.
# WT yeast strain (BY4741) = test: Yeast growth assay, WT strain; assay type: cell-based, Saccharomyces cerevisiae; settings: 0.3 mM TA, SD with 13 mg/L cysteine and 100 mg/L Hcy, 27 hours
# Procedure: as §1, §2, §3
# T1 sequence (P05067 672-713 limits assumed): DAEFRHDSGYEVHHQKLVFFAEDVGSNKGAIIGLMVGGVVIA
compound,measurement,setting,value
"O=C(O[C@@H]1Cc2c(O)cc(O)cc2O[C@@H]1c1cc(O)c(O)c(O)c1)c1cc(O)c(O)c(O)c1 [EGCG, epigallocatechin gallate]","Inhibition of Hcy fibril formation, ThT fluorescence intensity over time",Hcy fibrils [1],significant reduction in the ThT fluorescence intensity curves
same,Structures seen by TEM in mixture of Hcy with polyphenol,Hcy fibrils [2],no structures were formed
same,"Cell viability, inhibitors alone (MTT)","SH-SY5Y cells [3]; SH-SY5Y, 24 hours, EGCG 0.1 mM or TA 0.01 mM without Hcy",did not affect cell viability
same,Cell viability with inhibitor-containing Hcy solution compared to Hcy alone (MTT),"SH-SY5Y cells [3]; SH-SY5Y, 24 hours",significant increase in cell viability
"NC(CCS)C(=O)O (centres unmarked) [Hcy, 2-Amino-4-sulfanylbutanoic acid]",Cytotoxicity (MTT cell viability),SH-SY5Y cells [3],dose-dependent cytotoxicity
same,Cell death (MTT),"SH-SY5Y cells [3]; SH-SY5Y, 24-hour treatment with pre-formed Hcy assemblies in cell medium",up to 80%
same,Cytotoxicity (MTT cell viability),HEK293 cells,no significant toxicity
same,Apoptotic activity (annexin V / PI),SH-SY5Y cells [4],stimulated apoptotic activity in a concentration-dependent manner
same,Detection of amyloid-like structures in cells (ProteoStat),SH-SY5Y cells [5],amyloid-like structures in treated SH-SY5Y cells
same,Growth sensitivity to Hcy supplied in the growth medium,"cys4Δ yeast strain [6]; cys4Δ compared to WT, SD media with Hcy at different concentrations",sensitivity to Hcy supplied in the growth medium was observed
same,Degree of aggregation upon Hcy feeding (ProteoStat flow cytometry),cys4Δ yeast strain [7],significantly higher degree of aggregation
same,Cross-seeding of β-amyloid1-42 aggregation (ThT signal),β-amyloid1-42,induced β-amyloid1-42 aggregation in a concentration-dependent manner
same,Formation of amyloid-like fibrils (TEM),[8],formed amyloid-like fibrils
same,ThT fluorescence of self-assembly,[9],higher metabolite concentrations showing stronger ThT fluorescence
"O=C(OC[C@H]1O[C@@H](OC(=O)c2cc(O)c(O)c(OC(=O)c3cc(O)c(O)c(O)c3)c2)[C@H](OC(=O)c2cc(O)c(O)c(OC(=O)c3cc(O)c(O)c(O)c3)c2)[C@@H](OC(=O)c2cc(O)c(O)c(OC(=O)c3cc(O)c(O)c(O)c3)c2)[C@@H]1OC(=O)c1cc(O)c(O)c(OC(=O)c2cc(O)c(O)c(O)c2)c1)c1cc(O)c(O)c(OC(=O)c2cc(O)c(O)c(O)c2)c1 [TA, tannic acid]","Inhibition of Hcy fibril formation, ThT fluorescence intensity over time",Hcy fibrils [1],significant reduction in the ThT fluorescence intensity curves
same,Structures seen by TEM in mixture of Hcy with polyphenol,Hcy fibrils [2],no structures were formed
same,Cell viability with inhibitor-containing Hcy solution compared to Hcy alone (MTT),"SH-SY5Y cells [3]; SH-SY5Y, 24 hours",significant increase in cell viability
same,"Cell growth with TA (percentage of growth, OD600)","cys4Δ yeast strain [6]; cys4Δ, 0.3 mM TA, SD with 13 mg/L cysteine and 100 mg/L Hcy, 27 hours",significantly improved the cell growth
same,"Cell growth with TA (percentage of growth, OD600)",WT yeast strain (BY4741),no effect
CSCC[C@H](N)C(=O)O [methionine],Cytotoxicity (MTT cell viability),"SH-SY5Y cells [3]; SH-SY5Y, 24-hour treatment, solutions prepared in cell medium",did not show any toxicity
same,Apoptotic activity (annexin V / PI),"SH-SY5Y cells [4]; SH-SY5Y, treated for 24 hours",did not show any apoptotic effect
same,Formation of amyloid-like fibrils (TEM),[8],did not form amyloid-like fibrils
same,ThT fluorescence of self-assembly,[9],did not show a fluorescence signal
